The test system of assay [1] is autologous rosette-forming cells in the spleens of athymic mice. Conditions: in vivo; cited from earlier work.
Assay [2] has as its system T lymphocytes isolated from spleens of male CBA/J or NZB mice. As to the kind of experiment: T lymphocyte proliferation, 3H-thymidine incorporation. The class given is cell-based. On the set-up: key: A = Active; IA = Inactive. Conditions: 48 hours culture, 200 μl. The procedure: The activity of the compounds of Example 2 and Example 4 was determined according to the following procedure:
T lymphocytes are isolated from spleens of male CBA/J or NZB mice. Cell homogenates are prepared in Hank's balanced salt solution (HBSS). After removal of larger particles and repeated washing of the cells in HBSS they are suspended in minimum essential medium (MEM) and passed through a glass wool column to remove macrophages. The cells are then incubated on a nylon wool column at 37° C., 95% air, 5% CO2, for 45 minutes. The non-adherant T lymphocytes are then eluted from the column, counted, and adjusted to 20×10^6 cells/ml. 50 μl of cells are cultured (37° C., 95% air, 5% CO2) with compound, for 48 hours before the addition of 0.5 μCi. of 3H-thymidine for the last 16 hours of culture. The total volume of the culture system is 200 μl. The cells are then harvested on a multiple automatic sample harvester (Mash II), the glass fiber filter disks placed in 10 ml. of xylene base scintillation fluid, and counted for 1 minute in a liquid scintillation counter. Results are reported as CPM±SE. Comparisons are made between counts obtained with control cultures and cultures containing compound and a determination made as to whether the compounds are active at the dosage tested.

These results are taken from patent US4309340A, “Polypeptide compositions” (American Home Products Corporation, priority 1980, dated 1982).

Where a SMILES comes first, the peptide text is derived from it. Where no end group is shown, it is not given here. [ ]: non-standard residue; d: D form.

Turning to “RKDVY [arginyl-lysyl-aspartyl-valyl-tyrosine]”, the “Numbers of autologous rosette-forming cells in spleens of athymic mice” value in assay [1] is on record as “reducing the high numbers of autologous rosette-forming cells”.

`CC(=O)O.CC(=O)O.CC(=O)O.CC(C)[C@H](NC(=O)[C@H](CC(N)=O)NC(=O)[C@H](CCCCN)NC(=O)[C@H](N)CCCNC(=N)N)C(=O)N[C@H](Cc1ccccc1)C(N)=O` [D-Arg--Lys--Asn--Val--D-Phe--NH2, D-Arginyl-L-lysyl-L-asparaginyl-L-valyl-D-phenylalanyl amide tri acetate salt] (H-[dR]KNV[dF]-NH2): the “Activity (T-cell proliferation, 3H-thymidine CPM vs control cultures)” value in assay [2] (0.0015 μg/culture), in assay [2] (0.006 μg/culture), in assay [2] (0.025 μg/culture) and in assay [2] (0.1 μg/culture) was “A” throughout.

On to `CC(=O)O.CC(=O)O.CC(=O)O.CC(C)[C@H](NC(=O)[C@H](CC(N)=O)NC(=O)[C@H](CCCCN)NC(=O)[C@@H](N)CCCNC(=N)N)C(=O)N[C@@H](Cc1ccc(O)cc1)C(N)=O` [Arg--Lys--Asn--Val--Tyr--NH2, L-Arginyl-L-lysyl-L-asparaginyl-L-valyl-L-tyrosyl-amide triacetate salt] (H-RKNVY-NH2), for which the “Activity (T-cell proliferation, 3H-thymidine CPM vs control cultures)” value in assay [2] (0.0015 μg/culture) is given as “A”; in assay [2] (0.006 μg/culture), “A”; in assay [2] (0.025 μg/culture), “A”; in assay [2] (0.05 μg/culture), “A”; in assay [2] (0.1 μg/culture) it was “A”; in assay [2] (0.2 μg/culture), “IA”.
